Measured values: ChEMBL document CHEMBL1145143, “5'-Homoaristeromycin. Synthesis and antiviral activity against orthopox viruses” (Bioorg Med Chem Lett, 2005)
Values after ≈ are worked out from the molar mass of the structure shown.

Key:
[1] = Cytotoxic concentration against cowpox, monkeypox and vaccinia virus in vero 76 cells; assay type: functional; conditions: Orthopoxvirus vaccinia
[2] = Concentration required for 50% inhibition of adohcy hydrolase by the compound against monkeypox virus in vero 76 cells; assay type: functional, cell-based
Cowpox virus = assay: Concentration required for 50% inhibition of adohcy hydrolase by the compound against cowpox virus in vero 76 cells; assay type: functional, organism-based
Vaccinia virus = assay: Concentration required for 50% inhibition of adohcy hydrolase by the compound against vaccinia virus in vero 76 cells; assay type: functional, organism-based; conditions: Orthopoxvirus vaccinia

Structure (SMILES): Nc1ncnc2c1ncn2[C@@H]1C[C@H](CCO)[C@@H](O)[C@H]1O
- CC50 [1]: > 100 µg/mL
- IC50 [2]: 0.12 µg/mL (≈ 0.43 µM)
- IC50 (Cowpox virus): 0.12 µg/mL (≈ 0.43 µM)
- IC50 (Vaccinia virus): 1.2 µg/mL (≈ 4.3 µM)
